17 compounds from ChEMBL document CHEMBL1287678, “5-{2-[4-(2-methyl-5-quinolinyl)-1-piperazinyl]ethyl}-2(1H)-quinolinones and 3,4-dihydro-2(1H)-quinolinones: dual-acting 5-HT1 receptor antagonists and serotonin reuptake inhibitors. Part 3” (Bioorg Med Chem Lett, 2010) can be followed below.

One may read the Ki as the dissociation constant of the complex between target and ligand, obtained from inhibition or displacement. A word on the EC50: it is the concentration that produces a half-maximal response. As usually defined, the bioavailability is the share of a dose that reaches the circulation, judged against a reference dose that is usually intravenous. As a reminder, the half-life is how long it takes for the measured level to halve. Lower therefore signals fast loss. Usually Kp stands for tissue or fluid exposure divided by exposure in the circulation.

Data set [1] concerns the target T1, 5-hydroxytryptamine receptor 1B (Homo sapiens, UniProt P28222). Nature of the data set: Intrinsic activity at human 5-HT1B receptor expressed in CHO cells assessed as effect on GTPgammaS binding by scintillation proximity assay relative to 5HT. Format: functional, cell-based. A general note: Binding of GTPγS marks nucleotide exchange on a G protein.
Data set [2] addresses T2, 5-hydroxytryptamine receptor 1D (Homo sapiens, UniProt P28221). Nature of the data set: Intrinsic activity at human 5-HT1D receptor expressed in CHO cells assessed as effect on GTPgammaS binding by scintillation proximity assay relative to 5HT. Format: functional, cell-based.
Data set [3] concerns the target Sodium-dependent serotonin transporter (Homo sapiens, UniProt P31645). Nature of the data set: Displacement of [3H]-citalopram in human SERT expressed in LLCPK cells by filtration assay. Format: cell-based. In general terms: Loss of bound radioactivity is the signal in a displacement assay; it reports binding, not function.
For data set [4], the target named is T3, 5-hydroxytryptamine receptor 1A (Homo sapiens, UniProt P08908).
T3 sequence (P08908 whole entry): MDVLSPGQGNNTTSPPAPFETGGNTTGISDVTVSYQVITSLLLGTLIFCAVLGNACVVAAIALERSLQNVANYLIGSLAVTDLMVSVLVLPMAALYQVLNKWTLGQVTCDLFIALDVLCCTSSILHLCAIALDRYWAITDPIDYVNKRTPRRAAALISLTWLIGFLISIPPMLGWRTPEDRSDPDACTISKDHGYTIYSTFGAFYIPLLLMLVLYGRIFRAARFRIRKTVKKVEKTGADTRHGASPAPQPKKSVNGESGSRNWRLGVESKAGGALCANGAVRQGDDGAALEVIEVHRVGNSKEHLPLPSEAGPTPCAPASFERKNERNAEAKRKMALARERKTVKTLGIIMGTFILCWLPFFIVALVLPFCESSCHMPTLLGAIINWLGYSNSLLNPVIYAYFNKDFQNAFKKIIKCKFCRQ
Nature of the data set: Antagonist activity at human 5-HT1A receptor expressed in HEK293 cells assessed as inhibition of GTPgammaS binding by scintillation proximity assay. Format: functional, cell-based.

For data set [5], the target named is T4, 5-hydroxytryptamine receptor 1A (Homo sapiens) (UniProt P08908).
T4 sequence (whole entry): T3 sequence (P08908 whole entry)
Nature of the data set: Intrinsic activity at human 5-HT1A receptor expressed in HEK293 cells assessed as effect on GTPgammaS binding by scintillation proximity assay relative to 5HT. Format: functional, cell-based.

For data set [6], the target named is T1, 5-hydroxytryptamine receptor 1B. Description: Agonist activity at human 5-HT1B receptor expressed in CHO cells assessed as stimulation of GTPgammaS binding by scintillation proximity assay. Format: functional, cell-based.
The target of data set [7] is Voltage-gated inwardly rectifying potassium channel KCNH2 (Homo sapiens, UniProt Q12809). Description: Displacement of [3H]-dofetilide in human hERG expressed in CHO cells by proximity assay. It counts as cell-based.
The target in data set [8] is T1, 5-hydroxytryptamine receptor 1B. Nature of the data set: Antagonist activity at human 5-HT1B receptor expressed in CHO cells assessed as inhibition of GTPgammaS binding by scintillation proximity assay. It counts as functional, cell-based.
In data set [9] the target is T2, 5-hydroxytryptamine receptor 1D. Nature of the data set: Antagonist activity at human 5-HT1D receptor expressed in CHO cells assessed as inhibition of GTPgammaS binding by scintillation proximity assay. It counts as functional, cell-based.
Data set [10] is described as follows: Oral bioavailability in rat at 1 mg/kg. It counts as ADME, organism-based. The settings on record: in vivo.
A short description of data set [11]: Blood clearance in rat at 0.5 mg/kg, iv and 1 mg/kg, po. The following applies: whole blood. It counts as ADME, organism-based.
A short description of data set [12]: Half life in rat at 0.5 mg/kg, iv and 1 mg/kg, po. It counts as ADME, organism-based. The following applies: in vivo.
Data set [13] can be described thus: Volume of distribution at steady state in rat at 0.5 mg/kg, iv and 1 mg/kg, po. It counts as ADME, organism-based. The following applies: in vivo, read-out: Vdss.
The test system of the next data set is Liver microsomes. Nature of the data set: Intrinsic clearance in human liver microsomes. Format: ADME, Microsome. (Liver microsomes are vesicles of endoplasmic reticulum, rich in cytochrome P450 enzymes.)
The nature of data set [14]: Ratio of drug level in brain to blood in rat at 0.5 mg/kg, iv and 1 mg/kg, po. The following applies: brain / whole blood. Format: ADME, organism-based.

T1 sequence (P28222 whole entry): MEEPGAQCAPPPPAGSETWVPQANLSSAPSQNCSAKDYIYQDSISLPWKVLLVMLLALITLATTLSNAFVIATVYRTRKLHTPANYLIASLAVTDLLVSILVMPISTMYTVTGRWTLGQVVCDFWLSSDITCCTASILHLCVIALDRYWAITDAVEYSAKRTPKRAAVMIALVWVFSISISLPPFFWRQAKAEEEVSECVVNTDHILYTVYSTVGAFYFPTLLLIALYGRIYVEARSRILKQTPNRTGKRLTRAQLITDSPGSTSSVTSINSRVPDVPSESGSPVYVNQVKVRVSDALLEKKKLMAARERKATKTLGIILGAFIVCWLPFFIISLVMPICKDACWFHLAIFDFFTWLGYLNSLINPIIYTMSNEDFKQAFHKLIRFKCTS
Sequence of Sodium-dependent serotonin transporter (P31645 whole entry): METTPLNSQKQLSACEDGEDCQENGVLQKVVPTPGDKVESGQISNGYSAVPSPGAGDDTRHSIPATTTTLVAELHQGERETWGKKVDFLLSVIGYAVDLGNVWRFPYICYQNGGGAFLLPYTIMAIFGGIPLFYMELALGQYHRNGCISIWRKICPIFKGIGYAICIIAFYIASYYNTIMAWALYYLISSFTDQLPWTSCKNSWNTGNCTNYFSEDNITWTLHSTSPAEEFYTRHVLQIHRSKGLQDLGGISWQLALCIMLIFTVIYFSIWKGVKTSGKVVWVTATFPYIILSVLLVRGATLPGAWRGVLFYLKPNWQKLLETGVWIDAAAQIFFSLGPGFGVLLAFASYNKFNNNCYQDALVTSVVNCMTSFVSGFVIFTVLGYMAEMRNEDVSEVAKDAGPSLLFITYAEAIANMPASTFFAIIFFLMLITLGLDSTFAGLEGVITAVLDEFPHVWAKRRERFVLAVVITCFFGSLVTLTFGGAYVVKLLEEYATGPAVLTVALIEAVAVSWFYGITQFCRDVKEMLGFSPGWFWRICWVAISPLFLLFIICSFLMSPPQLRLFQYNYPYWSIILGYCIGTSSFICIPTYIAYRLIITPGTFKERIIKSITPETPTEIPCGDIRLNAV
Sequence of Voltage-gated inwardly rectifying potassium channel KCNH2 (Q12809 whole entry): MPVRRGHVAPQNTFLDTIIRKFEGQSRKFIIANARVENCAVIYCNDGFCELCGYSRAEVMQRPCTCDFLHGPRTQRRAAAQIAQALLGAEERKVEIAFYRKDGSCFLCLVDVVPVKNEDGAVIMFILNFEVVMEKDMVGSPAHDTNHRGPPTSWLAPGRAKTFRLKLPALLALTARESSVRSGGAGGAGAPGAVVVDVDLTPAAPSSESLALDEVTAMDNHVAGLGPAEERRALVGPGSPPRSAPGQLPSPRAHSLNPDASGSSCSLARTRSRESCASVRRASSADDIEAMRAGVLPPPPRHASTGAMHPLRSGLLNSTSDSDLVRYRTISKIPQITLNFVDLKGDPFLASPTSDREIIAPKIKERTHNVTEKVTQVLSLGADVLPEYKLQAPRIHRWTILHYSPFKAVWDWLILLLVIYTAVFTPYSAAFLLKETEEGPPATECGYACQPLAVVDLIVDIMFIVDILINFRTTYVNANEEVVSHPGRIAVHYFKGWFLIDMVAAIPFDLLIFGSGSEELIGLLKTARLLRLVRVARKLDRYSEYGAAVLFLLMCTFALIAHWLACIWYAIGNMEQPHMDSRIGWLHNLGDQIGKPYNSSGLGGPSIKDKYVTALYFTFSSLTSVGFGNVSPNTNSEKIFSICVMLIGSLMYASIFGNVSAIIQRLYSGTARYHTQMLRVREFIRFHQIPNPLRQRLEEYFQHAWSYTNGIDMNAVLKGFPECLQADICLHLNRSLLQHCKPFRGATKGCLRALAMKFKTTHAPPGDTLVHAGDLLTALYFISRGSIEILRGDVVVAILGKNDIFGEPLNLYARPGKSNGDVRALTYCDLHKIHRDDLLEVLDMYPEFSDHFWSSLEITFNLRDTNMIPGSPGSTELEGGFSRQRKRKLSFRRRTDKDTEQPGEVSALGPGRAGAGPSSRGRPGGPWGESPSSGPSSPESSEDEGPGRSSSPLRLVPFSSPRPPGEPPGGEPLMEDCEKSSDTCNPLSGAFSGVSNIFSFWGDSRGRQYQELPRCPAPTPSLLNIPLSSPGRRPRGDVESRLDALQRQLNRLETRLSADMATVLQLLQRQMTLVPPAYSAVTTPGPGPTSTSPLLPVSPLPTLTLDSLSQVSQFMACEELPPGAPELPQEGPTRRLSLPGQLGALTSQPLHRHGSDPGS
T2 sequence (P28221 whole entry): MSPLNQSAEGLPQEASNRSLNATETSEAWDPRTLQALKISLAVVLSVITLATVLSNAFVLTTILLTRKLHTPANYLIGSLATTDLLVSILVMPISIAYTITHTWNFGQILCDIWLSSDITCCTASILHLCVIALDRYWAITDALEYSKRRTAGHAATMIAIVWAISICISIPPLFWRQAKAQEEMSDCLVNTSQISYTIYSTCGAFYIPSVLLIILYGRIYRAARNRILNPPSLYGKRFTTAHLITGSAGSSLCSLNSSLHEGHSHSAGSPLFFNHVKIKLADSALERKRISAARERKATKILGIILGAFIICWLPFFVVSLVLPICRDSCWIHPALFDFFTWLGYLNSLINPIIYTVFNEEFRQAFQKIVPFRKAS

As for `Cc1ccc2c(N3CCN(CCc4c(C)ccc5[nH]c(=O)ccc45)CC3)cccc2n1`, the figures for the Intrinsic activity in data set [1], in data set [2] and in data set [5] were 0.4, 0 and 0, respectively. The Ki in [3] was 100 nM; in [4], 1 nM. Moreover, in [6], the EC50 was 501 nM.

In the case of `Cc1ccc2c(N3CCN(CCc4c(F)ccc5c4ccc(=O)n5C)CC3)cccc2n1`, the Intrinsic activity in data set [1], in [2] and in [5] was 0 in each case. Further, the Ki in data set [7] is 31600 nM; in data set [8], 31.6 nM; in data set [3] it was 12.6 nM; in [4], 0.398 nM; in data set [9], 0.398 nM.

As to `Cc1ccc2c(N3CCN(CCc4cccc5[nH]c(=O)ccc45)CC3)cccc2n1`, the Intrinsic activity in [1], in [2] and in [5] was 0 each time.

For `Cc1ccc2c(N3CCN(CCc4c(C)ccc5c4ccc(=O)n5C)CC3)cc(F)cc2n1`, the Ki in data set [7] was 2510 nM; in data set [8], above 1000 nM; in data set [3], 10 nM; in [4], 1.26 nM; in [9] it was 2 nM. The Intrinsic activity in data set [2] and in data set [5] was 0 throughout. In addition, the bioavailability in data set [10] is 82%. For the same compound, the clearance in [11] worked out at 46 mL/min/kg. The compound further showed a half-life in data set [12] of 0.7 h. Moreover, the Vd in data set [13] amounted to 2.4 L/kg. Further, the CL in the data set on Liver microsomes is 1.6 mL/min/g.

With `Cc1ccc2c(N3CCN(CCc4cccc5c4ccc(=O)n5C)[C@@H](C)C3)cc(F)cc2n1`, the Intrinsic activity in data set [1], in [2] and in data set [5] was 0 throughout. Besides, the Ki in data set [7] was 6310 nM; in [8], 316 nM; in data set [3] it was 0.501 nM; in data set [4], 1 nM; in [9] it was 1.26 nM. The bioavailability in [10] is 34%. For the same compound, in data set [11], the clearance is 34 mL/min/kg. Besides, the Kp in data set [14] came out at 1.2. Moreover, the half-life in data set [12] is 1.6 h. The Vd in data set [13] worked out at 2 L/kg. The compound also had a CL in the data set with Liver microsomes of 0.8 mL/min/g.

On to `Cc1ccc2c(N3CCN(CCc4cccc5c4CCC(=O)N5C)CC3)cccc2n1`, for which the Intrinsic activity in [1], in data set [2] and in data set [5] was 0 throughout. In addition, the Ki in data set [7] is 3980 nM; in [8], 0.794 nM; in data set [3], 12.6 nM; in data set [4], 0.631 nM; in [9], 0.0794 nM.

As to `Cc1ccc2c(N3CCN(CCc4cccc5c4OCC(=O)N5C)CC3)cccc2n1`, the CL in the data set with Liver microsomes was 2.4 mL/min/g.

On to `Cc1ccc2c(N3CCN(CCc4c(Cl)ccc5c4ccc(=O)n5C)CC3)cccc2n1`, for which the Intrinsic activity in [1] came to 0.5; in data set [2], 0; in data set [5], 0. The Ki in data set [3] was 15.8 nM; in data set [4], 3.98 nM; in [9], 3.98 nM. Moreover, the EC50 in data set [6] was 316 nM.

Regarding `Cc1ccc2c(C3CCN(CCc4c(C)ccc5c4ccc(=O)n5C)CC3)cccc2n1`, the Ki is 2000 nM in data set [7]; above 1000 nM in [8]; 1.26 nM in data set [3]; 1.26 nM in data set [4]; 39.8 nM in [9]. Besides, the Intrinsic activity in data set [2] and in [5] was 0 throughout. Besides, the bioavailability in [10] is 82%. The compound also yielded a clearance in [11] of 31 mL/min/kg. Besides, in data set [14], the Kp turned out to be 0.8. For the same compound, the half-life in [12] was 1.4 h. Besides, the Vd in [13] worked out at 3.4 L/kg. The CL in the data set with Liver microsomes turned out to be 0.9 mL/min/g.

For the compound `Cc1ccc2c(N3CCN(CCc4cccc5c4ccc(=O)n5C)[C@@H](C)C3)cccc2n1`, the Intrinsic activity in data set [1], in [2] and in data set [5] was 0 in each case. Besides, the inhibition constant Ki in data set [7] was 5010 nM; in data set [8] it was 398 nM; in [3], 2.51 nM; in data set [4], 3.16 nM; in data set [9] it was 5.01 nM. The same compound displayed a bioavailability in [10] of 12%. In addition, the clearance in [11] was 32 mL/min/kg. Further, the Kp in data set [14] is 1.3. Moreover, the half-life in data set [12] was 0.6 h. Besides, the Vd in [13] came to 1.2 L/kg. The same compound showed a CL with Liver microsomes of 1.5 mL/min/g.

Take `Cc1ccc2c(N3CCN(CCc4c(C)ccc5c4ccc(=O)n5C)[C@@H](C)C3)cc(F)cc2n1`: the Ki is above 1000 nM in [8], 1 nM in data set [3], 3.98 nM in data set [4] and above 1000 nM in data set [9]. Moreover, the Intrinsic activity in data set [5] is 0.

Consider `Cc1ccc2c(N3CCN(CCc4c(C)ccc5c4ccc(=O)n5C)[C@@H](C)C3)cccc2n1`, for which the inhibition constant Ki was 1580 nM in data set [7]; above 1000 nM in data set [8]; 0.501 nM in data set [3]; 3.98 nM in data set [4]; 20 nM in data set [9]. Moreover, the Intrinsic activity in data set [2] and in data set [5] was 0 each time. The same compound showed a bioavailability in data set [10] of 35%. In addition, in [11], the clearance came out at 46 mL/min/kg. For the same compound, in [14], the partition ratio (Kp) turned out to be 1.7. The compound also gave a half-life in data set [12] of 1.2 h. Also, the Vd in data set [13] came to 2.7 L/kg. The CL with Liver microsomes is below 0.5 mL/min/g.

Turning to `Cc1ccc2c(N3CCN(CCc4cccc5c4OCC(=O)N5)CC3)cccc2n1`, the CL in the data set with Liver microsomes is 1 mL/min/g.

As to `Cc1ccc2c(N3CCN(CCc4cccc5c4ccc(=O)n5C)[C@H](C)C3)cc(F)cc2n1`, the Intrinsic activity in data set [1], in data set [2] and in [5] was 0 throughout. For the same compound, the Ki was 10000 nM in data set [7]; 0.794 nM in data set [8]; 0.501 nM in [3]; 1 nM in [4]; 0.126 nM in [9].

On to `Cc1ccc2c(N3CCN(CCc4c(C)ccc5c4ccc(=O)n5C)[C@H](C)C3)cccc2n1`, for which the Ki in [7] was 7940 nM; in [8] it was above 1000 nM; in data set [3], 3.98 nM; in data set [4] it was 1.26 nM; in data set [9] it was 2.51 nM. The Intrinsic activity in [2] and in [5] was 0 throughout. In data set [10], this compound gave a bioavailability of 31%. In data set [11], this compound came in with a clearance of 21 mL/min/kg. Further, the Kp in [14] worked out at 0.4. Moreover, in [12], the half-life is 1.5 h. In addition, the Vd in data set [13] came to 2.1 L/kg. In the data set with Liver microsomes, this compound registered a CL of 1.2 mL/min/g.

Turning to `Cc1ccc2c(N3CCN(CCc4cccc5c4ccc(=O)n5C)C(C)(C)C3)cccc2n1`, the Intrinsic activity in [2] worked out at 0; in data set [5], 0.3. Further, the Ki in data set [8] was 0.501 nM; in data set [4], 1.58 nM; in [9], 0.501 nM. The bioavailability in data set [10] was 27%. For the same compound, the clearance in data set [11] turned out to be 34 mL/min/kg. In addition, the Kp in [14] turned out to be 1.1. In [12], this compound showed a half-life of 0.6 h. For the same compound, the Vd in data set [13] came to 0.8 L/kg. For the same compound, the CL with Liver microsomes came to 3.8 mL/min/g.

With `Cc1ccc2c(N3CCN(CCc4cccc5c4CCC(=O)N5)CC3)cccc2n1`, the Intrinsic activity in data set [1], in data set [2] and in data set [5] was 0 throughout.
